Data from PubChem BioAssay (NCI).
Several values for one entry are separate records, joined by “and”; a condition that tells them apart may be missing. Equal values may be shown once.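 Results reflect a 48-hour exposure of cells in 96-well plates to compound at five concentrations. Abbreviation: GI50, concentration required for 50% inhibition of growth. TGI: total growth inhibition.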

Tests used:
Assay in all cases: NCI tumour cell line growth inhibition, 48 h
OVCAR-4 ovarian = tested on: OVCAR-4 ovarian
IGROV1 ovarian = tested on: IGROV1 ovarian
KM20L2 colon = tested on: KM20L2 colon
SK-MEL-5 melanoma = tested on: SK-MEL-5 melanoma
NCI-H23 lung = tested on: NCI-H23 lung
LXFL 529 NSCLC = tested on: LXFL 529 NSCLC
NCI-H522 lung = tested on: NCI-H522 lung
T-47D breast = tested on: T-47D breast
BT-549 breast = tested on: BT-549 breast
MCF7 breast = tested on: MCF7 breast

| Compound | TGI (OVCAR-4 ovarian) | TGI (IGROV1 ovarian) | TGI (KM20L2 colon) | TGI (SK-MEL-5 melanoma) | TGI (NCI-H23 lung) | TGI (LXFL 529 NSCLC) | GI50 (OVCAR-4 ovarian) [µM] | GI50 (IGROV1 ovarian) [µM] | GI50 (KM20L2 colon) [µM] | GI50 (SK-MEL-5 melanoma) [µM] | GI50 (NCI-H23 lung) [µM] | GI50 (LXFL 529 NSCLC) [µM] | TGI (NCI-H522 lung) [µM] | GI50 (T-47D breast) [µM] | TGI (T-47D breast) [µM] | GI50 (NCI-H522 lung) [µM] | GI50 (BT-549 breast) [µM] | TGI (BT-549 breast) [µM] | GI50 (MCF7 breast) [µM] | TGI (MCF7 breast) [µM] |
| --- | --- | --- | --- | --- | --- | --- | --- | --- | --- | --- | --- | --- | --- | --- | --- | --- | --- | --- | --- | --- |
| CC(=O)OCCOCn1c2ccccc2c2c3c(c4c5ccccc5n(COCCOC(C)=O)c4c21)C(=O)N(Cc1ccccc1)C3=O | > 100 µM | > 100 µM | > 100 µM | > 100 µM | > 100 µM | > 100 µM | – | – | – | – | – | – | – | – | – | – | – | – | – | – |
| COc1cccc(/C=N/[N-]C(=O)c2ccncc2)c1[O-].[Mn+2].[OH3+] | > 100 µM | > 100 µM | > 100 µM | 30.3 µM | 41.1 µM | > 100 µM | 22.1 | 8.29 | 4.51 | 12.3 | 8.12 | 15.3 | – | – | – | – | – | – | – | – |
| CCCCCCCCCCC(=O)CCCCCCC(=O)O | > 100 µM | 34.9 µM | – | 29.3 µM | 98.4 µM | 40.1 µM | – | – | – | – | – | – | 50.5 | – | – | – | – | – | – | – |
| COc1ccc(C(c2ccccc2C(=O)O)c2ccc(OC)c3ccccc23)c2ccccc12 | 25.6 µM | 25.5 µM | 26.5 µM | 34.2 µM | – | 20.7 µM | – | – | – | – | – | – | 32.7 | – | – | – | – | – | – | – |
| CCCCC(C(=O)C(=O)Nc1ccc(C)cc1C)C(=O)C(C)C (stereo unspecified) | > 100 µM | > 100 µM | > 100 µM | > 100 µM | > 100 µM | > 100 µM | – | – | – | – | – | – | – | – | – | – | – | – | – | – |
| C#CCN(N=O)C(=O)NC(CCCCNC(=O)OCc1ccccc1)C(=O)OCc1ccccc1 (stereo unspecified) | 72.8 µM | > 100 µM | > 100 µM | – | > 100 µM | 31.7 µM | – | – | – | – | – | – | 31.7 | – | – | – | – | – | – | – |
| CC(=O)Nc1ccccc1-c1nc2ccccc2nc1-c1ccccc1 | > 100 µM | > 100 µM | > 100 µM | – | > 100 µM | > 100 µM | – | – | – | – | – | – | – | – | – | – | – | – | – | – |
| CNC(=O)c1cc(Oc2ccc3nc(NC(=O)Nc4ccc(CN5CCOCC5)c(C(F)(F)F)c4)sc3c2)ccn1 | 5.64 µM | 10.5 µM | – | 2.22 µM | 4.22 µM | – | 1.72 | 2.77 | – | 1.01 | 1.7 | – | 8.36 | 1.53 | 6.82 | 1.97 | 3.02 | 9.18 | 1.75 | 4.63 |
| Nc1nc(=O)n(C2CC(O)C(CO)O2)cc1F (stereo unspecified) | > 100 µM | > 100 µM | – | > 100 µM | > 28.5 µM | – | 47.7 | > 100 | – | 0.228 | < 0.0332 | – | > 100 | > 100 | > 100 | – | – | > 100 | 0.00235 | > 100 |
| O=C(NCCCCCCCCCCCCNC(=O)c1cnc2ccccc2n1)c1cnc2ccccc2n1 | 29.8 µM | > 100 µM | > 100 µM | > 100 µM | – | > 100 µM | – | – | – | – | – | – | > 100 | – | – | – | – | – | – | – |
| CCc1cccc(C(C)C)c1NC(=O)CC1Sc2ccccc2NC1=O (stereo unspecified) | > 100 µM | > 100 µM | – | > 100 µM | > 100 µM | > 100 µM | – | – | – | – | – | – | 97.6 | – | – | – | – | – | – | – |
| NC(Cc1ccccc1)C(=O)OCN1C(=O)C2C3C=CC(C2C1=O)C1C2C(=O)N(COC(=O)C(N)Cc4ccccc4)C(=O)C2C31 (stereo unspecified) | 34 µM and 44.5 µM | > 100 µM and 70.7 µM | 67.2 µM and 51.5 µM | 34.4 µM and 32.9 µM | 38.1 µM and 42.7 µM | 39.7 µM and 37.9 µM | – | – | – | – | – | – | – | – | – | – | – | – | – | – |
| O=C(O)C1C2C=CC(O2)C1C(=O)NCc1cccnc1 (stereo unspecified) | > 100 µM | > 100 µM | – | > 100 µM | > 100 µM | – | – | – | – | – | – | – | > 100 | – | > 100 | – | – | > 100 | – | > 100 |
| CC(C)C[C@H](CC(=O)O)C(=O)N[C@@H](Cc1c[nH]c2ccccc12)C(=O)N[C@@H](C)c1ccccc1 | > 25 µM | > 25 µM | – | > 25 µM | > 25 µM | – | > 25 | > 25 | – | > 25 | > 25 | – | > 25 | > 25 | > 25 | > 25 | > 25 | > 25 | > 25 | > 25 |
| CN(C)c1ccc(C(=S)c2ccc(N(C)C)cc2)cc1 | > 100 µM | > 100 µM | – | 20.6 µM | > 100 µM | – | 16.9 | 6.29 | – | 3.45 | 7.28 | – | 9.31 | 6.34 | > 100 | 2.56 | 6.76 | 90.1 | 3.92 | > 100 |
| CC1(C)OB(c2ccc(N(CCOS(C)(=O)=O)CCOS(C)(=O)=O)cc2)OC1(C)C | > 86.6 µM | 35.4 µM | – | 38.2 µM | 30.4 µM | – | 32.9 | 4.89 | – | 16.2 | 6.88 | – | 74.5 | 18.1 | > 100 | 14.3 | 17.6 | 41 | 17.8 | > 83.8 |
| O=C1/C(=C/c2cccnc2)SC(=S)N1Cc1ccco1 | 77.6 µM | > 42.3 µM | – | > 51 µM | > 100 µM | – | – | – | – | – | – | – | 4.1 | – | 64.6 | – | – | > 100 | – | > 100 |
| COc1ccc2[nH]c(Cl)c(/C=C3/C(=O)Nc4ccccc43)c2c1 | 14.3 µM | 20.7 µM | – | 0.722 µM | 0.688 µM | – | 1.13 | 0.724 | – | 0.0902 | 0.219 | – | 1.87 | 5.4 | 84.5 | 0.381 | 0.185 | 0.523 | 0.79 | > 38.5 |
| O=C1C=CC2(CCCCCCC2=O)CC1 (stereo unspecified) | > 100 µM | > 100 µM | > 100 µM | > 100 µM | – | > 100 µM | – | – | – | – | – | – | > 100 | – | – | – | – | – | – | – |
| C=CC(=O)N[C@@H]1CN(c2nc(Nc3cn(C)nc3OC)c3ncn(C)c3n2)C[C@H]1F | > 100 µM | > 72.6 µM | – | > 59.8 µM | > 100 µM | – | 26.7 | 2.61 | – | 24.8 | 27.5 | – | 17.7 | 1.74 | > 100 | 0.0335 | 28.6 | > 100 | 17.7 | > 100 |
| O=C(CCC(=O)Nc1ccccc1C(F)(F)F)N/N=C1\C(=N\NC(=O)CCC(=O)Nc2ccccc2C(F)(F)F)C(c2ccc3c(c2)OCO3)Oc2ccccc21 (stereo unspecified) | > 85.4 µM | > 100 µM | > 100 µM | > 100 µM | > 100 µM | – | – | – | – | – | – | – | > 72.8 | – | – | – | – | – | – | – |
| Nc1n[n+]([O-])c2cc([N+](=O)[O-])ccc2[n+]1[O-] | 10.2 µM | 13.2 µM | – | 20.6 µM | 35.7 µM | – | – | – | – | – | – | – | 4.25 | – | 18.6 | – | – | 32 | – | 11.7 |
